Test results: patent US10653672B2, “Myogenesis promotor, muscle atrophy inhibitor, medical composition and TAZ activator” (National University Corporation Tokyo Medical and Dental …, priority 2014, dated 2020)
Several values for one entry are separate records, joined by “and”; a condition that tells them apart may be missing. Equal values may be shown once.

Legend:
Type in all cases: cell-based, mouse
[1] = system: C2C12 cells; test: Anti-MHC immunostaining of differentiating C2C12 cells
Experimental: (2) To a culture medium in which C2C12 cells were grown to confluence under growth condition, IBS008738 or DMSO was added. The C2C12 cells were fixed immediately after the addition of IBS008738 or DMSO, and at 24 hours, 48 hours or 72 hours after the addition of IBS008738 or DMSO under differentiation condition. The fixed C2C12 cells were immunostained with anti-MHC antibody. The cell nuclei were visualized with Hoechst 33342.
(3) C2C12 cells were grown under growth condition for 24 hours in a culture medium with IBS008738 or DMSO at a concentration of 10 μM, respectively, and switched to differentiation condition to continue the cultivation. The C2C12 cells were fixed immediately after the completion of cultivation under growth condition, and at 24 hours, 48 hours and 72 hours after the switching to differentiation condition, respectively.
C2C12 cells were passaged in a growth medium (DMEM containing 10% FBS) and differentiated in a differentiation medium (DMEM containing 2% horse serum (Invitrogen)).

[2] = system: C2C12 cells; test: Evaluation of muscle differentiation markers by immunoblotting; conditions: 10 μM
Experimental: (1) C2C12 cells were cultured for 24 hours under growth condition in a culture medium added with IBS008738 or DMSO at a concentration of 10 μM, and switched to differentiation condition and the cultivation was continued. The expression of markers indicating muscle differentiation was determined with a predetermined antibody, on the C2C12 cells immediately after the completion of cultivation under growth condition (0 h), 24 hours after switching to differentiation condition (24 h), 48 hours after switching to differentiation condition (48 h) and 72 hours after switching to differentiation condition (72 h), respectively. Tubulin was used as a loading control (FIG. 3A).

[3] = system: cyclin D1; test: Quantitative real-time PCR, cyclin D1; conditions: C2C12 cells, 10 μM; for Normarized mRNA abundance, CyclinD1: listed as IBS008738
Experimental: (§1) (1) Quantitative real-time PCR was performed with C2C12 cells immediately before the induction of muscle formation (0 h), and after culturing under differentiation condition in a culture medium added with IBS008738 or DMSO at a concentration of 10 μM for 24 hours (24 h) and 72 hours (72 h), respectively. […] The line and error bar indicate the average value and the standard error, **p<0.05, and ns refers to not significant.
(2) Evaluation was also performed under the same condition on the connective tissue growth factor (CTGF) and cyclin D1, as TAZ targets in epidermal cells.
(§2) The quantitative real-time PCR was performed with SYBER Green (Roche) and ABI7500 Realtime PCR system (Applied Biosystems).

[4] = system: M-cadherin; test: Quantitative real-time PCR, M-cadherin; conditions: C2C12 cells, 10 μM; for Normarized mRNA abundance, M-cadherin: listed as IBS008738
Experimental: as §1
(§3) Evaluation was also performed under the same condition on M-cadherin, calpain 1 and caveolin 3, which are myofusion markers. As a result, there was no increase in the degree of gene transcription in the case with IBS008738.
as §2

[5] = system: caveolin 3; test: Quantitative real-time PCR, caveolin 3; conditions: C2C12 cells, 10 μM; for Normarized mRNA abundance, Caveolin3: listed as IBS008738
Experimental: as §1, §3, §2

[6] = system: C2C12 cells; test: Immunofluorescence of endogenous MyoD and TAZ in C2C12 cells; conditions: 10 μM
Experimental: Immunostaining of endogenous MyoD and TAZ in C2C12 cells was performed at three stages, i.e., after being cultured in a medium added with IBS008738 or DMSO at a concentration of 10 μM under growth condition for 24 hours, after being cultured under differentiation condition for 24 hours, and after being cultured under differentiation condition for 72 hours (see FIG. 7B). Both MyoD and TAZ existed at each of the three stages. After being cultured under growth condition for 24 hours, MyoD and TAZ were diffusely distributed in the nuclei (top), but formed dots under differentiation condition. After being cultured under differentiation condition for 24 hours, some cells strongly expressed TAZ, whereas other cells expressed more MyoD (middle). After being cultured under differentiation condition for 72 hours, in the single-nuclear cells, TAZ expression decreased while MyoD was still expressed. In the multi-nuclear cells, both TAZ and MyoD were expressed and colocalized in the nuclei (bottom). […] However, at 24 hours under differentiation condition, colocalization of TAZ and MyoD in the single-nuclear cells and generation of cells with two or three nuclei were promoted in the case with IBS008738 as compared with the case with DMSO (middle). […] The immunostaining and the immunofluorescence analysis were performed by the method described in Exp Cell Res 313:1484-1495. The line in the figures is 50 μm.

With Cc1ccc(-n2cnc(/N=C/N3CCOCC3)c2C(=O)c2ccccc2)cc1 [exemplary compound 1] the “cell differentiation compared with DMSO” value ([1]; 10 μM, 24 hours under growth condition, then differentiation condition up to 72 hours) was “more developed”, the “cell differentiation and MHC expression compared with DMSO” value ([1]; added at confluence, fixed at 0, 24, 48 or 72 hours under differentiation condition, anti-MHC antibody) was “more significant” and the “decrease in the expression of Pax7 compared with DMSO” value [2] was “faster to decrease”. For the same compound, the “expression of MHC compared with DMSO” value [2] was “became significant on days 3 and 4”, the “expression of TAZ” value [2] was “became most significant on day 2” and the “expression of myogenin compared with DMSO” value [2] was “became stronger after day 2”. The “expression of MyoD compared with DMSO” value ([2]; day 1 after the addition) was “slightly higher”, the “gene transcription of cyclin D1 compared with DMSO” value ([3]; 24 h and 72 h) was “no significant difference” and the “Normarized mRNA abundance, CyclinD1” value ([3]; differentiation condition 24 h) was 0.95 and 0.83 and 0.78. For the same compound, the “Normarized mRNA abundance, CyclinD1” value ([3]; differentiation condition 72 h) was 0.62 and 0.60 and 0.61, the “degree of gene transcription of M-cadherin” value ([4]; 24 h and 72 h) was “no increase” and the “Normarized mRNA abundance, M-cadherin” value ([4]; differentiation condition 24 h) was 1.66 and 1.61 and 1.64. For the same compound, the “Normarized mRNA abundance, M-cadherin” value ([4]; differentiation condition 72 h) was 0.82 and 0.87 and 0.80, the “degree of gene transcription of caveolin 3” value ([5]; 24 h and 72 h) was “no increase” and the “Normarized mRNA abundance, Caveolin3” value ([5]; differentiation condition 24 h) was 0.14 and 0.13. The “Normarized mRNA abundance, Caveolin3” value ([5]; differentiation condition 72 h) was 2.08 and 2.47 and 2.09, the “colocalization of TAZ and MyoD in the single-nuclear cells and generation of cells with two or three nuclei” value ([6]; 24 hours under differentiation condition, compared with DMSO) was “promoted” and the multinuclear cells ([6]; 72 hours under differentiation condition, compared with DMSO) was “remarkably increased”. The “MyoD and TAZ immunostaining compared with DMSO” value ([6]; growth condition 24 hours) was “no significant difference from the case with DMSO was not observed”.
